Reference: ChEMBL document CHEMBL4616698, “Scaffold Repurposing of in-House Chemical Library toward the Identification of New Casein Kinase 1 δ Inhibitors” (ACS Med Chem Lett, 2020)

What was measured:
[1] = biological target: Casein kinase 1, delta tv1 (Sus scrofa, UniProt M3VH47); assay: Inhibition of porcine brain CK-1delta using RRKHAAIGpSAYSITA peptide as substrate incubated for 30 mins in presence of [gamma-33P]-ATP by scintillation counting method
[2] = biological target: Casein kinase I isoform delta (Homo sapiens, UniProt P48730); assay: Inhibition of full length recombinant human GST-tagged CSNK1D expressed in baculovirus expression system using casein as substrate incubated for 10 mins in presence of ATP by KinaseGlo luminescence assay
Chain of Casein kinase I isoform delta (P48730 whole entry, canonical isoform): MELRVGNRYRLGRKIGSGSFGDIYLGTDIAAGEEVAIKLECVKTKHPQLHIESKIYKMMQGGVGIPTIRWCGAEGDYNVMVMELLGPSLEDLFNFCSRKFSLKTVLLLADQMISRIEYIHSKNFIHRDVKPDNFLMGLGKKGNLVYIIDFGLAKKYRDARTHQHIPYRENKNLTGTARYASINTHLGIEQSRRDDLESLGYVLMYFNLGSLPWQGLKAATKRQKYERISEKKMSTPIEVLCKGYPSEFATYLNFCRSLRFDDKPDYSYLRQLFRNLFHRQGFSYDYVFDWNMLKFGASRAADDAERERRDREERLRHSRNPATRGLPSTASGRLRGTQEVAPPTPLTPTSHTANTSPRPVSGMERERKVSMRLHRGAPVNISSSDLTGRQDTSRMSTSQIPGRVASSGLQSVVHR

Chain of Casein kinase 1, delta tv1 (M3VH47 whole entry, canonical isoform): as the sequence (P48730 whole entry, canonical isoform) above, with V340A, P401A, S406A, V412A counted along it

Row | IC50 [1] [µM] | IC50 [2] [µM] | SMILES
1 | 0.0077 |  | Nc1nccc(-c2c(-c3ccc(F)cc3)ncn2C2CCCCC2)n1
2 |  | 15.2 | CCn1ccc2c3c(=O)cc(-c4cccc5ccccc45)[nH]c3ccc21
3 |  | 13 | Oc1cc(-c2cccc(Br)c2)nc2ccc3[nH]ccc3c12
